Assay type in all cases: cell-based, human
One experiment deals with Factor H. Nature of the experiment: Western blot of Factor H expression in A549 cells. Particulars: 10 μM, 1 day, cell extract. On the procedure: Experiment 2 was designed to determine the effect of ATA, AQA, and AHA on the expression and release of Factor H and VEGF by U251 cells. Cells were grown in DMEM for 24 h at 37° C., after which ATA, AQA, or AHA was added to the medium at a final concentration of 10 μM and incubation carried out for a further 24 h. The medium was drawn off, and the cells washed with PBS. Lysis buffer was then added to the cells. Forty microliters of the cell lysate, or the supernatant media, were loaded onto 12% polyacrylamide gels and separated under non-reducing conditions (70 V, 3-6 h). Following SDS-PAGE, proteins were transferred to a PVDF membrane (Bio-Rad™, CA) at 30 mA for 2 h. The membranes were blocked with 5% milk in PBS-T (80 mM Na2HPO4, 20 mM NaH2PO4, 100 mM NaCl, 0.1% Tween 20, pH 7.4) for 1 h, and incubated overnight at 4° C. with primary antibodies for Factor H (Cytotech™, goat 1/1000) and for VEGF (Millipore™, rabbit 1/2000). The membranes were then washed 3 times with PBST. They were then treated with an appropriate horseradish peroxidase (HRP)-conjugated secondary antibody for 3 h at room temperature. The secondary antibodies were anti-rabbit IgG (P0448, DAKO™, Mississauga, Ontario, CA, 1/2,000) and anti-goat IgG (AP106P, Millipore™, Billerica, Ma, 1/3,000). […]
Background: A western blot detects proteins with antibodies after separation by electrophoresis.

For experiment [1], the system named is VEGF. Briefly: Western blot of VEGF expression and release by BxPC-3 cells. Particulars: 10 μM, 1 day; for expression of vascular endothelial growth factor (VEGF) in BxPC-3 cells: cell extract; for release of VEGF into the extracellular milieu by BxPC-3 cells: supernatant. On the procedure: Experiment 2 was designed to determine the effect of ATA, AQA, and AHA on the expression and release of Factor H and VEGF by U251 cells. Cells were grown in DMEM for 24 h at 37° C., after which ATA, AQA, or AHA was added to the medium at a final concentration of 10 μM and incubation carried out for a further 24 h. The medium was drawn off, and the cells washed with PBS. Lysis buffer was then added to the cells. Forty microliters of the cell lysate, or the supernatant media, were loaded onto 12% polyacrylamide gels and separated under non-reducing conditions (70 V, 3-6 h). Following SDS-PAGE, proteins were transferred to a PVDF membrane (Bio-RadTM, CA) at 30 mA for 2 h. The membranes were blocked with 5% milk in PBS-T (80 mM Na2HPO4, 20 mM NaH2PO4, 100 mM NaCl, 0.1% Tween 20, pH 7.4) for 1 h, and incubated overnight at 4° C. with primary antibodies for Factor H (CytotechTM, goat 1/1000) and for VEGF (MilliporeTM, rabbit 1/2000). The membranes were then washed 3 times with PBST. They were then treated with an appropriate horseradish peroxidase (HRP)-conjugated secondary antibody for 3 h at room temperature. The secondary antibodies were anti-rabbit IgG (P0448, DAKOTM, Mississauga, Ontario, CA, 1/2,000) and anti-goat IgG (A[…], MilliporeTM, Billerica, Ma, 1/3,000). The bands were visualized with an enhanced chemiluminescence system and exposure to photographic film (Hyperfilm ECLTM, AmershamTM Pharmacia Biotech, Little Chalfont, UK). For reprobing of membranes with an alternative antibody, the membranes were treated with 10 mL of stripping buffer (3 mL of 1 M Tris-HCl pH 6.7, 10 mL of 10% SDS, 347 μL of 14 M mercaptoethanol, and 36.5 mL deionized water) at 60° C. for 1 h. The membrane was then placed on a shaking incubator for 30 min to clear it of all bound antibodies. The stripped membrane was then treated with a different primary antibody as previously described. Experiment 6 was designed to determine the effect of ATA, AQA, and AHA on the expression and release of Factor H and VEGF by BxPC-3 cells.

Experiment [2] relates to VEGF. Nature of the experiment: Western blot of VEGF expression and release by A549 cells. Particulars: 10 μM, 1 day; for expression of vascular endothelial growth factor (VEGF) in A549 cells: cell extract; for release of VEGF into the extracellular milieu by A549 cells: supernatant. On the procedure: Experiment 2 was designed to determine the effect of ATA, AQA, and AHA on the expression and release of Factor H and VEGF by U251 cells. Cells were grown in DMEM for 24 h at 37° C., after which ATA, AQA, or AHA was added to the medium at a final concentration of 10 μM and incubation carried out for a further 24 h. The medium was drawn off, and the cells washed with PBS. Lysis buffer was then added to the cells. Forty microliters of the cell lysate, or the supernatant media, were loaded onto 12% polyacrylamide gels and separated under non-reducing conditions (70 V, 3-6 h). Following SDS-PAGE, proteins were transferred to a PVDF membrane (Bio-Rad™, CA) at 30 mA for 2 h. The membranes were blocked with 5% milk in PBS-T (80 mM Na2HPO4, 20 mM NaH2PO4, 100 mM NaCl, 0.1% Tween 20, pH 7.4) for 1 h, and incubated overnight at 4° C. with primary antibodies for Factor H (Cytotech™, goat 1/1000) and for VEGF (Millipore™, rabbit 1/2000). The membranes were then washed 3 times with PBST. They were then treated with an appropriate horseradish peroxidase (HRP)-conjugated secondary antibody for 3 h at room temperature. The secondary antibodies were anti-rabbit IgG (P0448, DAKO™, Mississauga, Ontario, CA, 1/2,000) and anti-goat IgG (AP106P, Millipore™, Billerica, Ma, 1/3,000). The bands were visualized with an enhanced chemiluminescence system and exposure to photographic film (Hyperfilm ECL™, Amersham™ Pharmacia Biotech, Little Chalfont, UK). For reprobing of membranes with an alternative antibody, the membranes were treated with 10 mL of stripping buffer (3 mL of 1 M Tris-HCl pH 6.7, 10 mL of 10% SDS, 347 μL of 14 M mercaptoethanol, and 36.5 mL deionized water) at 60° C. for 1 h. The membrane was then placed on a shaking incubator for 30 min to clear it of all bound antibodies. The stripped membrane was then treated with a different primary antibody as previously described.
Experiment 6 was designed to determine the effect of ATA, AQA, and AHA on the expression and release of Factor H and VEGF by BxPC-3 cells.
Experiment 10 was designed to determine the effect of ATA, AQA, and AHA on the expression and release of Factor H and VEGF by A549 cells. The protocol was identical to that used in Experiment 6 except A549 cells were used.

With aurin hexacarboxylic acid [AHA], the “expression of Factor H in A549 cells” value with Factor H is “reduced expression”. Moreover, in the experiment on VEGF [1], the “expression of vascular endothelial growth factor (VEGF) in BxPC-3 cells” value is “reducing expression” and the “release of VEGF into the extracellular milieu by BxPC-3 cells” value is “reducing release”. In the experiment with VEGF [2], the “expression of vascular endothelial growth factor (VEGF) in A549 cells” value was “reduced expression” and the “release of VEGF into the extracellular milieu by A549 cells” value is “reducing release”.

Take aurin quadracarboxylic acid [AQA]: the “expression of Factor H in A549 cells” value in the experiment on Factor H is on record as “reduced expression”. Further, in the experiment on VEGF [1], the “expression of vascular endothelial growth factor (VEGF) in BxPC-3 cells” value is given as “reducing expression” and the “release of VEGF into the extracellular milieu by BxPC-3 cells” value is given as “reducing release”. Further, in the experiment on VEGF [2], the “expression of vascular endothelial growth factor (VEGF) in A549 cells” value is on record as “reduced expression” and the “release of VEGF into the extracellular milieu by A549 cells” value is “reducing release”.

The values are drawn from patent US10653651B2, “Kit for treating cancer with low molecular weight components of aurin tricarboxylic acid complex” (Aurin Biotech Inc., priority 2014, dated 2020).
